Source: ChEMBL document CHEMBL3046743, “Synthesis and in vitro antimicrobial evaluation of penta-substituted pyridine derivatives bearing the quinoline nucleus” (2012)
≈ marks a conversion by molar mass, not a printed value.

What was measured:
Assay type in all cases: functional
[1] = tested on: Candida albicans; assay: Antifungal activity against Candida albicans MTCC 227 after 48 hr by broth microdilution method; conditions: MTCC 227, 48 h
[2] = tested on: Escherichia coli; assay: Antibacterial activity against Escherichia coli MTCC 443 after 24 hr by broth microdilution method; conditions: MTCC 443, 24 h
[3] = tested on: Streptococcus pneumoniae; assay: Antibacterial activity against Streptococcus pneumoniae MTCC 1936 after 24 hr by broth microdilution method; conditions: MTCC 1936, 24 h
[4] = tested on: Vibrio cholerae; assay: Antibacterial activity against Vibrio cholerae MTCC 3906 after 24 hr by broth microdilution method; conditions: MTCC 3906, 24 h
[5] = tested on: Bacillus subtilis; assay: Antibacterial activity against Bacillus subtilis MTCC 441 after 24 hr by broth microdilution method; conditions: MTCC 441, 24 h
[6] = tested on: Clostridium tetani; assay: Antibacterial activity against Clostridium tetani MTCC 449 after 24 hr by broth microdilution method; conditions: MTCC 449, 24 h
[7] = tested on: Salmonella typhi; assay: Antibacterial activity against Salmonella enterica subsp. enterica serovar Typhi MTCC 98 after 24 hr by broth microdilution method; conditions: MTCC 98, 24 h
[8] = tested on: Aspergillus fumigatus; assay: Antifungal activity against Aspergillus fumigatus MTCC 3008 after 48 hr by broth microdilution method; conditions: MTCC 3008, 48 h

SMILES | MIC [1] [µg/mL] | MIC [2] [µg/mL] | MIC [3] [µg/mL] | MIC [4] [µg/mL] | MIC [5] [µg/mL] | MIC [6] [µg/mL] | MIC [7] [µg/mL] | MIC [8] [µg/mL]
Cc1ccc(Sc2nc(N)c(C#N)c(-c3cc4ccc(C)cc4nc3Cl)c2C#N)cc1 | > 1000 | 200 (≈ 453 µM) | 200 (≈ 453 µM) | 200 (≈ 453 µM) | 200 (≈ 453 µM) | 200 (≈ 453 µM) | 250 (≈ 566 µM) | > 1000
N#Cc1c(N)nc(Sc2ccc(Cl)cc2)c(C#N)c1-c1cc2ccccc2nc1Cl | 1000 (≈ 2230 µM) | 100 (≈ 223 µM) | 250 (≈ 558 µM) | 250 (≈ 558 µM) | 250 (≈ 558 µM) | 250 (≈ 558 µM) | 150 (≈ 335 µM) | 1000 (≈ 2230 µM)
Cc1ccc(Sc2nc(N)c(C#N)c(-c3cc4ccccc4nc3Cl)c2C#N)cc1 | > 1000 | 100 (≈ 234 µM) | 200 (≈ 467 µM) | 62.5 (≈ 146 µM) | 250 (≈ 584 µM) | 250 (≈ 584 µM) | 100 (≈ 234 µM) | > 1000
Cc1ccc2nc(Cl)c(-c3c(C#N)c(N)nc(Sc4ccccc4)c3C#N)cc2c1 | > 1000 | 200 (≈ 467 µM) | 250 (≈ 584 µM) | 250 (≈ 584 µM) | 500 (≈ 1170 µM) | 500 (≈ 1170 µM) | 200 (≈ 467 µM) | > 1000
Cc1ccc2nc(Cl)c(-c3c(C#N)c(N)nc(Sc4ccc(Cl)cc4)c3C#N)cc2c1 | 500 (≈ 1080 µM) | 62.5 (≈ 135 µM) | 200 (≈ 433 µM) | 200 (≈ 433 µM) | 200 (≈ 433 µM) | 250 (≈ 541 µM) | 100 (≈ 216 µM) | 500 (≈ 1080 µM)
Cc1ccc(Sc2nc(N)c(C#N)c(-c3cc4cc(C)ccc4nc3Cl)c2C#N)cc1 | 250 (≈ 566 µM) | 250 (≈ 566 µM) | 100 (≈ 226 µM) | 500 (≈ 1130 µM) | 100 (≈ 226 µM) | 500 (≈ 1130 µM) | 200 (≈ 453 µM) | 500 (≈ 1130 µM)
COc1ccc2nc(Cl)c(-c3c(C#N)c(N)nc(Sc4ccccc4)c3C#N)cc2c1 | 1000 (≈ 2250 µM) | 500 (≈ 1130 µM) | 250 (≈ 563 µM) | 500 (≈ 1130 µM) | 250 (≈ 563 µM) | 200 (≈ 451 µM) | 500 (≈ 1130 µM) | 1000 (≈ 2250 µM)
COc1ccc2nc(Cl)c(-c3c(C#N)c(N)nc(Sc4ccc(Cl)cc4)c3C#N)cc2c1 | 1000 (≈ 2090 µM) | 200 (≈ 418 µM) | 250 (≈ 523 µM) | 200 (≈ 418 µM) | 250 (≈ 523 µM) | 200 (≈ 418 µM) | 200 (≈ 418 µM) | > 1000
COc1ccc2nc(Cl)c(-c3c(C#N)c(N)nc(Sc4ccc(C)cc4)c3C#N)cc2c1 | > 1000 | 500 (≈ 1090 µM) | 500 (≈ 1090 µM) | 500 (≈ 1090 µM) | 500 (≈ 1090 µM) | 500 (≈ 1090 µM) | 500 (≈ 1090 µM) | > 1000
N#Cc1c(N)nc(Sc2ccccc2)c(C#N)c1-c1cc2cc(Cl)ccc2nc1Cl | 250 (≈ 558 µM) | 200 (≈ 446 µM) | 200 (≈ 446 µM) | 200 (≈ 446 µM) | 100 (≈ 223 µM) | 250 (≈ 558 µM) | 250 (≈ 558 µM) | 250 (≈ 558 µM)
N#Cc1c(N)nc(Sc2ccccc2)c(C#N)c1-c1cc2ccccc2nc1Cl | 500 (≈ 1210 µM) | 200 (≈ 483 µM) | 250 (≈ 604 µM) | 200 (≈ 483 µM) | 250 (≈ 604 µM) | 500 (≈ 1210 µM) | 200 (≈ 483 µM) | 500 (≈ 1210 µM)
N#Cc1c(N)nc(Sc2ccc(Cl)cc2)c(C#N)c1-c1cc2cc(Cl)ccc2nc1Cl | 200 (≈ 414 µM) | 250 (≈ 518 µM) | 500 (≈ 1040 µM) | 500 (≈ 1040 µM) | 250 (≈ 518 µM) | 500 (≈ 1040 µM) | 250 (≈ 518 µM) | 500 (≈ 1040 µM)
Cc1ccc(Sc2nc(N)c(C#N)c(-c3cc4cc(Cl)ccc4nc3Cl)c2C#N)cc1 | 250 (≈ 541 µM) | 200 (≈ 433 µM) | 250 (≈ 541 µM) | 200 (≈ 433 µM) | 200 (≈ 433 µM) | 200 (≈ 433 µM) | 200 (≈ 433 µM) | 500 (≈ 1080 µM)
Cc1ccc2cc(-c3c(C#N)c(N)nc(Sc4ccccc4)c3C#N)c(Cl)nc2c1 | 1000 (≈ 2340 µM) | 100 (≈ 234 µM) | 100 (≈ 234 µM) | 250 (≈ 584 µM) | 100 (≈ 234 µM) | 200 (≈ 467 µM) | 200 (≈ 467 µM) | 1000 (≈ 2340 µM)
Cc1ccc2cc(-c3c(C#N)c(N)nc(Sc4ccc(Cl)cc4)c3C#N)c(Cl)nc2c1 | > 1000 | 500 (≈ 1080 µM) | 250 (≈ 541 µM) | 500 (≈ 1080 µM) | 250 (≈ 541 µM) | 250 (≈ 541 µM) | 500 (≈ 1080 µM) | > 1000
CC1(C)S[C@@H]2[C@H](NC(=O)[C@H](N)c3ccccc3)C(=O)N2[C@H]1C(=O)O [AMPICILLIN] | – | 100 (≈ 286 µM) | 100 (≈ 286 µM) | 100 (≈ 286 µM) | 250 (≈ 715 µM) | 250 (≈ 715 µM) | 100 (≈ 286 µM) | –
COC1=CC(=O)C[C@@H](C)[C@]12Oc1c(Cl)c(OC)cc(OC)c1C2=O [GRISEOFULVIN] | 100 (≈ 283 µM) | – | – | – | – | – | – | 500 (≈ 1420 µM)
CCn1cc(C(=O)O)c(=O)c2cc(F)c(N3CCNCC3)cc21 [NORFLOXACIN] | – | 10 (≈ 31.3 µM) | 10 (≈ 31.3 µM) | 10 (≈ 31.3 µM) | 100 (≈ 313 µM) | 50 (≈ 157 µM) | 10 (≈ 31.3 µM) | –
